Experimental data as given in patent US11053204B2, “Pyrimidinyloxy benzene derivatives as herbicides” (FMC Corporation, priority 2015, dated 2021).

How the values were obtained:
Format in all cases: in vivo
[1] = system: ragweed (common ragweed, Ambrosia elatior); assay: Test A postemergence, visual injury rating; details: Ambrosia artemisiifolia, post-emergence, 240 h, 0 is no effect, 100 is complete control, read-out: Ragweed plant response rating (0 to 100 scale)
Procedure, shortened: (§1)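 Visual injury scored 0–100 (100 = complete control) against untreated controls about 10 days after treatment in a greenhouse. Test chemicals, formulated with surfactant in non-phytotoxic solvent, were sprayed on soil preemergence or on 2-10 cm, one- to two-leaf plants postemergence.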

[2] = system: barnyardgrass (Echinochloa crus-galli); assay: Test A postemergence, visual injury rating; details: Echinochloa crus-galli, post-emergence, 240 h, 0 is no effect, 100 is complete control, read-out: Barnyardgrass plant response rating (0 to 100 scale)
Procedure, shortened: as §1

[3] = system: galium (catchweed bedstraw, Galium aparine); assay: Test A postemergence, visual injury rating; details: Galium, post-emergence, 240 h, 0 is no effect, 100 is complete control, read-out: Galium plant response rating (0 to 100 scale)
Procedure, shortened: as §1

[4] = system: Italian ryegrass (Lolium multiflorum); assay: Test A postemergence, visual injury rating; details: Lolium multiflorum, post-emergence, 240 h, 0 is no effect, 100 is complete control, read-out: Ryegrass, Italian plant response rating (0 to 100 scale)
Procedure, shortened: as §1

corn (Zea mays) = assay: Test A postemergence, visual injury rating; details: Zea mays, post-emergence, 240 h, 0 is no effect, 100 is complete control, read-out: Corn plant response rating (0 to 100 scale)
Procedure, shortened: as §1

[5] = system: pigweed (Amaranthus retroflexus); assay: Test A postemergence, visual injury rating; details: Amaranthus retroflexus, post-emergence, 240 h, 0 is no effect, 100 is complete control, read-out: Pigweed plant response rating (0 to 100 scale)
Procedure, shortened: as §1

[6] = system: blackgrass (Alopecurus myosuroides); assay: Test A postemergence, visual injury rating; details: Alopecurus myosuroides, post-emergence, 240 h, 0 is no effect, 100 is complete control, read-out: Blackgrass plant response rating (0 to 100 scale)
Procedure, shortened: as §1

kochia (Kochia scoparia) = assay: Test A postemergence, visual injury rating; details: Bassia scoparia, post-emergence, 240 h, 0 is no effect, 100 is complete control, read-out: Kochia plant response rating (0 to 100 scale)
Procedure, shortened: as §1

[7] = system: giant foxtail (Setaria faberii); assay: Test A postemergence, visual injury rating; details: Setaria faberi, post-emergence, 240 h, 0 is no effect, 100 is complete control, read-out: Foxtail, Giant plant response rating (0 to 100 scale)
Procedure, shortened: as §1

[8] = system: wheat (Triticum aestivum); assay: Test A postemergence, visual injury rating; details: Triticum aestivum, post-emergence, 240 h, 0 is no effect, 100 is complete control, read-out: Wheat plant response rating (0 to 100 scale)
Procedure, shortened: as §1

[9] = system: galium (catchweed bedstraw, Galium aparine); assay: Test C postemergence, plant response rating; details: Galium, post-emergence
Procedure, shortened: (§2)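 Both timings shared one formulation, a non-phytotoxic solvent mixture with surfactant, and a greenhouse period of 13 to 15 d. Preemergence used seeded loam/sand or silt loam soil, postemergence used 2 to 18 cm plants; visual ratings ran from 0 (no effect) to 100 (complete control).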

[10] = system: ryegrass, Italian (Italian ryegrass, Lolium multiflorum); assay: Test C postemergence, plant response rating; details: Lolium multiflorum, post-emergence
Procedure, shortened: as §2

[11] = system: chickweed (common chickweed, Stellaria media); assay: Test C postemergence, plant response rating; details: Stellaria media, post-emergence
Procedure, shortened: as §2

[12] = system: oilseed rape (Brassica napus); assay: Test C postemergence, plant response rating; details: Brassica napus, post-emergence
Procedure, shortened: as §2

[13] = system: blackgrass (Alopecurus myosuroides); assay: Test C postemergence, plant response rating; details: Alopecurus myosuroides, post-emergence
Procedure, shortened: as §2

[14] = system: waterhemp (common waterhemp, Amaranthus rudis); assay: Test C postemergence, plant response rating; details: for Plant response rating, Waterhemp: scale 0 to 100; for Waterhemp plant response rating: scale 0 to 100 (0 no effect, 100 complete control)
Procedure, shortened: as §2

[15] = system: wheat (winter wheat, Triticum aestivum); assay: Test C postemergence, plant response rating; details: Triticum aestivum, post-emergence
Procedure, shortened: as §2

[16] = system: foxtail, giant (giant foxtail, Setaria faberii); assay: Test C postemergence, plant response rating; details: Setaria faberi, post-emergence
Procedure, shortened: as §2

soybean (Glycine max) = assay: Test C postemergence, plant response rating; details: Glycine max, post-emergence
Procedure, shortened: as §2

[17] = 62 g ai/ha, scale 0 to 100 (0 no effect, 100 complete control)
[18] = 125 g ai/ha, scale 0 to 100 (0 no effect, 100 complete control)

## O=C(OCCC(F)(F)F)c1c(Br)cccc1Oc1ncc(Cl)cn1 [Compound 26, 3,3,3-trifluoropropyl 2-bromo-6-[(5-chloro-2-pyrimidinyl)oxy]benzoate]
[1]; 125 g ai/ha
  pest or weed control at 125 g/ha: 30%
[1]; 500 g ai/ha
  pest or weed control at 500 g/ha: 60%
[2]; 125 g ai/ha
  pest or weed control at 125 g/ha: 100%
[2]; 500 g ai/ha
  pest or weed control at 500 g/ha: 100%
[3]; 125 g ai/ha
  pest or weed control at 125 g/ha: 100%
[3]; 500 g ai/ha
  pest or weed control at 500 g/ha: 100%
[4]; 125 g ai/ha
  pest or weed control at 125 g/ha: 70%
[4]; 500 g ai/ha
  pest or weed control at 500 g/ha: 80%
Corn (Zea mays); 125 g ai/ha
  plant injury at 125 g/ha: 60%
Corn (Zea mays); 500 g ai/ha
  plant injury at 500 g/ha: 100%
[5]; 125 g ai/ha
  pest or weed control at 125 g/ha: 100%
[5]; 500 g ai/ha
  pest or weed control at 500 g/ha: 100%
[6]; 125 g ai/ha
  pest or weed control at 125 g/ha: 100%
[6]; 500 g ai/ha
  pest or weed control at 500 g/ha: 100%
Kochia (Kochia scoparia); 125 g ai/ha
  pest or weed control at 125 g/ha: 100%
Kochia (Kochia scoparia); 500 g ai/ha
  pest or weed control at 500 g/ha: 100%
[7]; 125 g ai/ha
  pest or weed control at 125 g/ha: 100%
[7]; 500 g ai/ha
  pest or weed control at 500 g/ha: 100%
[8]; 125 g ai/ha
  plant injury at 125 g/ha: 40%
[8]; 500 g ai/ha
  plant injury at 500 g/ha: 90%
[9]; 16 g ai/ha, scale 0 to 100
  pest or weed control at 16 g/ha: 55%
[9]; 31 g ai/ha, scale 0 to 100
  pest or weed control at 31 g/ha: 80%
[9]; [17]
  pest or weed control at 62 g/ha: 95%
[9]; [18]
  pest or weed control at 125 g/ha: 95%
[10]; 16 g ai/ha, scale 0 to 100
  pest or weed control at 16 g/ha: 5%
[10]; 31 g ai/ha, scale 0 to 100
  pest or weed control at 31 g/ha: 5%
[10]; [17]
  pest or weed control at 62 g/ha: 10%
[10]; [18]
  pest or weed control at 125 g/ha: 10%
[11]; 16 g ai/ha, scale 0 to 100
  pest or weed control at 16 g/ha: 55%
[11]; 31 g ai/ha, scale 0 to 100
  pest or weed control at 31 g/ha: 80%
[11]; [17]
  pest or weed control at 62 g/ha: 85%
[11]; [18]
  pest or weed control at 125 g/ha: 98%
[12]; 16 g ai/ha, scale 0 to 100
  plant injury at 16 g/ha: 40%
[12]; 31 g ai/ha, scale 0 to 100
  plant injury at 31 g/ha: 75%
[12]; [17]
  plant injury at 62 g/ha: 75%
[12]; [18]
  plant injury at 125 g/ha: 80%
[13]; 16 g ai/ha, scale 0 to 100
  pest or weed control at 16 g/ha: 10%
[13]; 31 g ai/ha, scale 0 to 100
  pest or weed control at 31 g/ha: 15%
[13]; [17]
  pest or weed control at 62 g/ha: 15%
[13]; [18]
  pest or weed control at 125 g/ha: 35%
[14]; 16 g ai/ha
  Plant response rating, Waterhemp: 95
[14]; 31 g ai/ha
  Plant response rating, Waterhemp: 98
[14]; 62 g ai/ha
  Waterhemp plant response rating: 98
[14]; 125 g ai/ha
  Waterhemp plant response rating: 100
[15]; 16 g ai/ha, scale 0 to 100
  plant injury at 16 g/ha: 0%
[15]; 31 g ai/ha, scale 0 to 100
  plant injury at 31 g/ha: 0%
[15]; 62 g ai/ha, scale 0 to 100 (0 no effect, 100 complete control), read-out: Wheat plant response rating
  plant injury at 62 g/ha: 5%
[15]; [18]
  plant injury at 125 g/ha: 10%
[16]; 16 g ai/ha, scale 0 to 100
  pest or weed control at 16 g/ha: 10%
[16]; 31 g ai/ha, scale 0 to 100
  pest or weed control at 31 g/ha: 10%
[16]; [17]
  pest or weed control at 62 g/ha: 10%
[16]; [18]
  pest or weed control at 125 g/ha: 25%
Soybean (Glycine max); 16 g ai/ha, scale 0 to 100
  plant injury at 16 g/ha: 65%
Soybean (Glycine max); 31 g ai/ha, scale 0 to 100
  plant injury at 31 g/ha: 55%
Soybean (Glycine max); [17]
  plant injury at 62 g/ha: 65%
Soybean (Glycine max); [18]
  plant injury at 125 g/ha: 75%
